Test results published in patent publication US7892782B2 (priority 1998, dated 2011).

Tests used:
[1] = system: M. tuberculosis; test: Incorporation of [3H]-uridine into RNA after addition of rifampicin; format: cell-based, Mycobacterium tuberculosis
Protocol: For incorporation of radioactive uridine, 10 ml of the culture for each time point was washed twice to remove the remaining rifampicin and then resuspended in 10 ml 7H9 medium followed by incubation with 10 μCi/ml of [^3H]-uridine for 20 hours. For 5* the culture was not washed after incubation with rifampicin and 10 μCi/ml of [^3H]-uridine was added to the culture which was further incubated in the presence of rifampicin for 20 hours. The RNA was extracted by methods known in the art. The RNA [^3H]-uridine incorporation was determined as counts per minute of trichloroacetic acid precipitated RNA. The results were confirmed in three independent experiments.

[2] = system: M. tuberculosis H37Rv; format: cell-based, Mycobacterium tuberculosis
[3] = system: M. tuberculosis; test: RT-PCR of gene transcripts before and after rifampicin treatment; format: cell-based, Mycobacterium tuberculosis; details: 12 hours in growth medium alone
Protocol: The metabolic state of bacilli before and after rifampicin treatment was also assessed by examining total RNA which was extracted. RT-PCR was performed on the following genes; rpoB which encodes the rifampicin target (RNA polymerase sub-unit B); 16 kDa protein α-crystallin homolog); 16S rRNA and two Sigma 70 homologues, sigA and sigB.

[4] = system: Staphylococcus aureus; format: cell-based; details: stationary phase ≅10^9 bacteria/ml, 100 μg/ml ampicillin, 3 days
[5] = system: M. tuberculosis persister cells; details: data not shown
[6] = system: Escherichia coli K12; format: cell-based; details: stationary phase ≅10^9 bacteria/ml, 50 μg/ml kanamycin, 3 days

Compound: CO[C@H]1/C=C/O[C@@]2(C)Oc3c(C)c(O)c4c(O)c(c(/C=N/N5CCN(C)CC5)c(O)c4c3C2=O)NC(=O)/C(C)=C\C=C\[C@H](C)[C@H](O)[C@@H](C)[C@@H](O)[C@@H](C)[C@H](OC(C)=O)[C@@H]1C [rifampicin]
- [3H]-uridine incorporation ([1]; 100 μg/ml rifampicin 1 day, washed, then 20 h with [3H]-uridine): 2228 ± 88 counts per minute
- [3H]-uridine incorporation ([1]; 100 μg/ml rifampicin 2 days, washed, then 20 h with [3H]-uridine): 2316 ± 120 counts per minute
- [3H]-uridine incorporation ([1]; 100 μg/ml rifampicin 3 days, washed, then 20 h with [3H]-uridine): 2430 ± 54 counts per minute
- [3H]-uridine incorporation ([1]; 100 μg/ml rifampicin 4 days, washed, then 20 h with [3H]-uridine): 2318 ± 126 counts per minute
- [3H]-uridine incorporation ([1]; 100 μg/ml rifampicin 5 days, washed, then 20 h with [3H]-uridine): 2388 ± 20 counts per minute
- [3H]-uridine incorporation ([1]; 5*: 5 days, not washed, [3H]-uridine 20 h in the presence of rifampicin): 518 ± 10 counts per minute
- increase of radioactive uridine incorporation after removal of rifampicin ([1]; medium alone versus in the presence of rifampicin (5 versus 5* days)): about 5 fold
- Broth counts [2]: 10^2 bacteria/ml
- Broth dilution counts of rifampicin treated cultures [2]: 10^2 bacteria/ml
- increase of level of transcription (16K, sigA and rpoB transcripts) after removal of rifampicin [3]: 5- to 10 fold

Compound: CC1(C)S[C@@H]2[C@H](NC(=O)[C@H](N)c3ccccc3)C(=O)N2[C@H]1C(=O)O [ampicillin]
- phenotypically resistant subpopulation remaining [4]: ~10^5 bacteria/ml

Compound: O=C(O)CN(CCN(CC(=O)O)CC(=O)O)CC(=O)O [EDTA]
- effect on persister cell walls and efficacy of rifampicin [5]: permeabilizes persister cell walls and increases the efficacy of rifampicin

Compound: NC[C@H]1O[C@H](O[C@H]2[C@H](O)[C@@H](O[C@H]3O[C@H](CO)[C@@H](O)[C@H](N)[C@H]3O)[C@H](N)C[C@@H]2N)[C@H](O)[C@@H](O)[C@@H]1O [kanamycin]
- phenotypically resistant subpopulation remaining [6]: ~10^5 bacteria/ml
